Measurements published in patent US11236084B2, “Substituted azaindoline derivatives as NIK inhibitors” (Janssen Pharmaceutica NV, priority 2017, dated 2022).
Like-named read-outs stand apart in the source and are kept apart here.

Target: recombinant human NF-kappaB-inducing kinase (NIK/MAP3K14) (Homo sapiens, UniProt Q99558)
Experiment: Biological Assay B: inhibition of auto-phosphorylation of recombinant human NIK/MAP3K14 (AlphaScreen), performed at 2 locations
Assay type: biochemical
Conditions: averaged values
Protocol: Inhibition of Auto-Phosphorylation of Recombinant Human NF-kappaB-Inducing Kinase (NIK/MAP3K14) Activity (AlphaScreen®)
NIK/MAP3K14 auto-phosphorylation activity was measured using the AlphaScreen® (αscreen) format (Perkin Elmer). All compounds tested were dissolved in dimethyl sulfoxide (DMSO) and further dilutions were made in assay buffer. Final DMSO concentration was 1% (v/v) in assays. Assay buffer was 50 mM Tris pH 7.5 containing 1 mM EGTA (ethylene glycol tetraacetic acid), 1 mM DTT (dithiothreitol), 0.1 mM Na3VO4, 5 mM MgCl2, 0.01% Tween® 20. Assays were carried out in 384 well Alphaplates (Perkin Elmer). Incubations consisted of compound, 25 microM Adenosine-5′-triphosphate (ATP), and 0.2 nM NIK/MAP3K14. Incubations were initiated by addition of GST-tagged NIK/MAP3K14 enzyme, carried out for 1 h at 25° C. and terminated by addition of stop buffer containing anti-phospho-IKK Ser176/180 antibody. Protein A Acceptor and Glutathione-Donor beads were added before reading using an EnVision® Multilabel Plate Reader (Perkin Elmer). Signal obtained in the wells containing blank samples was subtracted from all other wells and IC50's were determined by fitting a sigmoidal curve to % inhibition of control versus Log10 compound concentration.
Assay B was performed at 2 different locations.
Data for the compounds of the invention in the above assays are provided in Table A (the values in Table are averaged values over all measurements on all batches of a compound; values as IC50 (nM)). (‘n.c.’ means not calculated: ‘Co.’ means compound)

[1] = location 2, AlphaScreen auto-phosphorylation, read-out: Assay B location 2 IC50
[2] = location 1, AlphaScreen auto-phosphorylation, read-out: Assay B location 1 IC50

Sequence of recombinant human NF-kappaB-inducing kinase (NIK/MAP3K14) (Q99558 whole entry): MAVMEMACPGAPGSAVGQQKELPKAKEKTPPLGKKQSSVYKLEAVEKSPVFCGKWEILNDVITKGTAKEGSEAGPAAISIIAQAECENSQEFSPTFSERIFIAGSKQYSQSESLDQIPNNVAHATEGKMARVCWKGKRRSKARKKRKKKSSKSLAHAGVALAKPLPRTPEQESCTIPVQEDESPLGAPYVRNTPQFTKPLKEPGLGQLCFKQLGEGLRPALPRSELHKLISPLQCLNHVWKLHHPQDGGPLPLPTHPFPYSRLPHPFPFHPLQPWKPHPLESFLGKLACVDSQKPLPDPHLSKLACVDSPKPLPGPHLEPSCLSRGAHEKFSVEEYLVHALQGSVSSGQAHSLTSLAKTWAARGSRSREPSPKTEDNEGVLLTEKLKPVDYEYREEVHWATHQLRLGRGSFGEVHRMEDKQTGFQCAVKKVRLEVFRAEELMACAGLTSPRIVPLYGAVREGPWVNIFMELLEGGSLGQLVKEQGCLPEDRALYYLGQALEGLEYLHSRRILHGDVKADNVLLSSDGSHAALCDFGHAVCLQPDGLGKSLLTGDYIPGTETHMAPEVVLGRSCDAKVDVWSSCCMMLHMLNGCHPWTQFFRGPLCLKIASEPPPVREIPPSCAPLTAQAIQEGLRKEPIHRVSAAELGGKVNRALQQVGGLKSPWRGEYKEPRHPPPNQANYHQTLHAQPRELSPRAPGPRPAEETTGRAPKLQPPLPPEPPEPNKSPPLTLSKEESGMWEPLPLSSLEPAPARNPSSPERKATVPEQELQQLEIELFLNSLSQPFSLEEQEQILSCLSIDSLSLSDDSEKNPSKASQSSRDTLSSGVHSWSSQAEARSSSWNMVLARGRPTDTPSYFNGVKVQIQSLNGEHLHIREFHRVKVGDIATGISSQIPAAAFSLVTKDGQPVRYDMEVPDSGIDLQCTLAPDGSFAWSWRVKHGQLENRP

SMILES | IC50 [1] | IC50 [2] | IC50 (location 2, NIK auto-phosphorylation, AlphaScreen, read-out: Assay B location 2 IC50)
COc1cc(N2CCC(C#N)CC2)c(Cl)cc1Nc1nccc(-c2cnc3c(c2)C(C)(CO)CN3)n1 (centres unmarked) [Compound 245] | 3.6 nM |  | 
CC1(CO)CNc2ncc(-c3ccnc(Nc4cc(C#N)c(N5CCOCC5)cc4Cl)n3)cc21 (single isomer, unassigned) [Compound 260] | 70.8 nM | 117 nM | 
COCCOc1cc(N2CCOCC2)c(Cl)cc1Nc1nccc(-c2cnc3c(c2)C(C)(CO)CN3)n1 (centres unmarked) [Compound 367] | 21.9 nM | 87.1 nM | 
COc1cc(N2CC(OC)C2)c(Cl)cc1Nc1nccc(-c2cnc3c(c2)C(C)(CO)CN3)n1 (centres unmarked) [Compound 287] | 1.3 nM | 3.9 nM | 
COc1cc(N2CC3(CCOCC3)C2)c(Cl)cc1Nc1nccc(-c2cnc3c(c2)C(C)(CO)CN3)n1 (centres unmarked) [Compound 3] | 2.2 nM | 10 nM | 
CN(C)CCOc1cc(N2CCOCC2)c(Cl)cc1Nc1nccc(-c2cnc3c(c2)C(C)(CO)CN3)n1 (centres unmarked) [Compound 371] | 209 nM | 437 nM | 
COCCN1CCN(c2cc(OC)c(Nc3nccc(-c4cnc5c(c4)C(C)(CO)CN5)n3)cc2Cl)CC1 (centres unmarked) [Compound 311] | 0.9 nM | 3.9 nM | 
COc1cc(N2CC3(CCOCC3)C2)c(C#N)cc1Nc1nccc(-c2cnc3c(c2)C(C)(CO)CN3)n1 (centres unmarked) [Compound 372] | 1.6 nM | 13.4 nM | 
COc1cc(N2CCN(C)CC2)c(Cl)cc1Nc1nccc(-c2cnc3c(c2)C(C)(CO)CN3)n1 (single isomer, unassigned) [Compound 303] | 4.8 nM | 13.8 nM | 
COc1cc(N2CC(C)(C)C2)c(Cl)cc1Nc1nccc(-c2cnc3c(c2)C(C)(CO)CN3)n1 (centres unmarked) [Compound 304] | 5.9 nM | 18.2 nM | 
COc1cc(N2CC(N(C)C)C2)c(Cl)cc1Nc1nccc(-c2cnc3c(c2)C(C)(CO)CN3)n1 (centres unmarked) [Compound 289] | 1.2 nM | 3.6 nM | 
COc1cc(N2CCN(C)CC2)c(F)cc1Nc1nccc(-c2cnc3c(c2)C(C)(CO)CN3)n1 (centres unmarked) [Compound 271] | 2.6 nM | 10.2 nM | 
CCC1(CC#N)CNc2ncc(-c3ccnc(Nc4ccc(C(=O)N5CCC(OC)CC5)cc4OC)n3)cc21 (centres unmarked) [Compound 155] | 38 nM |  | 
COc1cc(C(=O)N2CCC(OC)CC2)c(Cl)cc1Nc1nccc(-c2cnc3c(c2)C(C)(CO)CN3)n1 (centres unmarked) [Compound 296] | 1.2 nM | 5.3 nM | 
Cc1ccc(Cl)cc1Nc1nccc(-c2cnc3c(c2)C(C)(CO)CN3)n1 (centres unmarked) [Compound 199] | 4.5 nM |  | 
COc1cc(OCCN2CCOCC2)c(Cl)cc1Nc1nccc(-c2cnc3c(c2)C(C)(CO)CN3)n1 (centres unmarked) [Compound 340] |  |  | 2.6 nM
Cc1cc(N2CCOCC2)c(C#N)cc1Nc1nccc(-c2cnc3c(c2)C(C)(CO)CN3)n1 (single isomer, unassigned) [Compound 262] | 129 nM | 129 nM | 

SMILES | IC50 [1] | IC50 [2] | IC50 (location 2, NIK auto-phosphorylation, AlphaScreen, read-out: Assay B location 2 IC50)
COc1cc(N2CCC(N(C)C)C2)c(Cl)cc1Nc1nccc(-c2cnc3c(c2)C(C)(CO)CN3)n1 (centres unmarked) [Compound 278] | 1 nM | 4.7 nM | 
CN(C)CCOc1cc(N2CCOCC2)c(Cl)cc1Nc1nccc(-c2cnc3c(c2)C(C)(CO)CN3)n1 (single isomer, unassigned) [Compound 274] | 1450 nM | 2690 nM | 
COCCN(C)c1cc(OC)c(Nc2nccc(-c3cnc4c(c3)C(C)(CO)CN4)n2)cc1Cl (single isomer, unassigned) [Compound 5R] | 31.6 nM |  | 
CC(=O)Nc1ccc(C)c(Nc2nccc(-c3cnc4c(c3)C(C)(CO)CN4)n2)c1 (centres unmarked) [Compound 211] | 49 nM |  | 
Cc1cc(N2CCOCC2)ccc1Nc1nccc(-c2cnc3c(c2)C(C)(CO)CN3)n1 (centres unmarked) [Compound 216] | 47.9 nM |  | 
COc1cc(C(=O)N2CCC(OC)C2)c(Cl)cc1Nc1nccc(-c2cnc3c(c2)C(C)(CO)CN3)n1 (centres unmarked) [Compound 290] | 1.4 nM | 3.1 nM | 
COc1cc(N2CCN(C)CC2)c(Cl)cc1Nc1nccc(-c2cnc3c(c2)C(C)(CO)CN3)n1 (single isomer, unassigned) [Compound 291] | 0.5 nM | 1.4 nM | 
CC1(CO)CNc2ncc(-c3ccnc(Nc4ccccc4F)n3)cc21 (centres unmarked) [Compound 177] | 32.4 nM |  | 
COCCN1CC(c2cc(OC)c(Nc3nccc(-c4cnc5c(c4)C(C)(CO)CN5)n3)cc2Cl)C1 (centres unmarked) [Compound 321] | 1.6 nM | 3.6 nM | 
CCN1CCN(c2cc(OC)c(Nc3nccc(-c4cnc5c(c4)C(C)(CO)CN5)n3)cc2Cl)CC1 (single isomer, unassigned) [Compound 295] | 5.1 nM | 12.3 nM | 
CC1(CO)CNc2ncc(-c3ccnc(Nc4ccccc4Cl)n3)cc21 (centres unmarked) [Compound 178] | 14.1 nM |  | 
CCN1CCN(c2cc(OC)c(Nc3nccc(-c4cnc5c(c4)C(C)(CO)CN5)n3)cc2C#N)CC1 (centres unmarked) [Compound 279] | 2.7 nM |  | 
Cc1ccc(C#N)cc1Nc1nccc(-c2cnc3c(c2)C(C)(CO)CN3)n1 (centres unmarked) [Compound 208] | 5 nM |  | 
COc1cc(N2CC3(CCOC3)C2)c(Cl)cc1Nc1nccc(-c2cnc3c(c2)C(C)(CO)CN3)n1 (centres unmarked) [Compound 284] | 1.1 nM | 7.4 nM | 
COc1cc(C(=O)N2CCC(OC)C2)c(Cl)cc1Nc1nccc(-c2cnc3c(c2)C(C)(C)CN3)n1 (centres unmarked) [Compound 292] | 1.6 nM | 4.3 nM | 
Cc1cc(N2CCOCC2)c(F)cc1Nc1nccc(-c2cnc3c(c2)C(C)(CO)CN3)n1 (single isomer, unassigned) [Compound 256] | 155 nM | 155 nM | 

Now from value to molecule:

IC50 [1] | IC50 [2] | IC50 (location 2, NIK auto-phosphorylation, AlphaScreen, read-out: Assay B location 2 IC50) | SMILES
18.2 nM |  |  | COCc1ccc(Nc2nccc(-c3cnc4c(c3)C(C)(CO)CN4)n2)c(OC)c1 (centres unmarked) [Compound 166]
40.7 nM |  |  | COc1cc(CN(C)C)ccc1Nc1nccc(-c2cnc3c(c2)C(C)(CO)CN3)n1 (centres unmarked) [Compound 186]
2.2 nM |  |  | COc1ccc(Br)cc1Nc1nccc(-c2cnc3c(c2)C(C)(CO)CN3)n1 (centres unmarked) [Compound 181]
71.6 nM | 75.9 nM |  | COc1cc(Cl)ccc1Nc1nccc(-c2cnc3c(c2)C(C)(CO)CN3)n1 (centres unmarked) [Compound 172]
5.5 nM |  |  | COc1cc(Nc2nccc(-c3cnc4c(c3)C(C)(CO)CN4)n2)ccc1-c1cnn(C)c1 (centres unmarked) [Compound 188]
12 nM |  |  | COc1cc(-c2ncc[nH]2)ccc1Nc1nccc(-c2cnc3c(c2)C(C)(CO)CN3)n1 (centres unmarked) [Compound 163]
49 nM |  |  | COc1ccc(C2CC2)cc1Nc1nccc(-c2cnc3c(c2)C(C)(CO)CN3)n1 (centres unmarked) [Compound 195]
10.7 nM |  |  | COc1ccc(CO)cc1Nc1nccc(-c2cnc3c(c2)C(C)(CO)CN3)n1 (centres unmarked) [Compound 204]
8.9 nM |  |  | COc1cc(-c2cnn(C)c2)ccc1Nc1nccc(-c2cnc3c(c2)C(C)(CO)CN3)n1 (centres unmarked) [Compound 169]
17.8 nM |  |  | COc1ccc(C#N)cc1Nc1nccc(-c2cnc3c(c2)C(C)(CO)CN3)n1 (single isomer, unassigned) [Compound 249]
32.4 nM |  |  | CCOc1ccccc1Nc1nccc(-c2cnc3c(c2)C(C)(CO)CN3)n1 (centres unmarked) [Compound 174]
18.6 nM |  |  | COc1cc(C(=O)NC(C)(C)CO)ccc1Nc1nccc(-c2cnc3c(c2)C(C)(CO)CN3)n1 (centres unmarked) [Compound 160]
16.6 nM |  |  | COc1cc(-n2cncn2)ccc1Nc1nccc(-c2cnc3c(c2)C(C)(CO)CN3)n1 (centres unmarked) [Compound 207]
2.6 nM |  |  | COc1ccc(Cl)c(Nc2nccc(-c3cnc4c(c3)C(C)(CO)CN4)n2)c1 (centres unmarked) [Compound 222]
3.8 nM |  |  | COc1cc(CCO)ccc1Nc1nccc(-c2cnc3c(c2)C(C)(CO)CN3)n1 (centres unmarked) [Compound 185]
